In patent US9079859B2, “Synthetic lethal targeting of glucose transport” (AUCKLAND UNISERVICES LIMITED, priority 2011, dated 2015):

What was measured:
GLUT1 = GLUT1 protein levels; assay type: cell-based
Description: Moreover, the levels of soluble GLUT1 protein were also unaffected by STF-31 (FIG. 8D). […] Active analogs, which selectively kill VHL-deficient cells through glucose uptake, docked within the central channel of GLUT1 (FIG. 3F).

50 different kinases = experiment: In vitro kinase panel (Millipore Kinase Profiler); assay type: biochemical
Procedure: (§1) Cell Culture and Reagents. All cells were grown in DMEM+10% FCS. ACHN and ACHN shVHL were a kind gift from George V. Thomas (UCLA). HIF overexpressing clones were described previously (Sutphin et al., Cancer Res, 67:5896-5905 (2007)). Transfection of RNA oligos were performed with DnarmaFECT Reagent 1 (Dharmcon), according to manufacturer's directions. ON-TARGETplus SMART pools against HIF-1 R/ARNT were purchased from Dharmacon. Inducible shRNAmir to GLUT1 was purchased from Open Biosystems. GLUT1 was detected with anti-GLUT1 antibody from NeoMarkers/LabVision/Fisher. For immunofluorescent studies, GLUT1, GLUT2, and GLUT3 antibodies were purchased from R&D. Pyruvate/lactate levels and hexokinase activity were both measured by fluorometric assay (BioVision and Sigma-Aldrich, respectively). ATP levels were measured by bioluminescence assay (ATP Determination Kit from Molecular Probes/Invitrogen). In vitro kinase activities were performed by Millipore Kinase Profiler.

UMRC6/VHL = experiment: RCC panel sensitivity (Table 2); assay type: cell-based; details: VHL wild-type
RCC4/VHL = experiment: RCC panel sensitivity (Table 2); assay type: cell-based; details: VHL wild-type
RCC4 = experiment: RCC panel sensitivity (Table 2); assay type: cell-based; details: RCC4, VHL mutant
VHL-deficient cells [1] = experiment: Extracellular acidification rate, VHL-deficient cells; assay type: cell-based; design: dose or concentration left out as unconfirmed; details: VHL-deficient cells vs control-treated; 48 hours
Procedure: HIF is important to adapting to low oxygen conditions through the transcription of many genes, including those involved in glucose metabolism. It was hypothesized that STF-31 might inhibit metabolic pathways, leading to necrotic cell death. To examine whether this compound alters glycolysis, intracellular lactate, which is rapidly converted from the glycolysis end product pyruvate, and extracellular acidification were measured. Baseline levels of glycolysis were lower in wild-type VHL cells compared to VHL-deficient cells (FIGS. 2, A and B), likely a result of the constitutive expression of HIF and subsequent overexpression of glucose transporters and glycolytic enzymes in the latter.

RCC4 cells = experiment: Necrotic cell death by trypan blue, RCC4; assay type: cell-based; details: 5 μM, 3 days
Procedure: Cell Viability Assays. For 2,3-bis[2-methoxy-4-nitro-5-sulfophenyl]-2H-tetrazolium-5-carboxanilide (XTT) assays, five thousand cells were plated in 96-well plates. The next day, vehicle (DMSO) or drug was added by serial dilution. Four days later, media were aspirated, XTT solution (0.3 mg/ml of XTT (Sigma), […] N-methyl dibenxopyrazine methyl sulfate (Sigma) in phenol red-free media) was added, and the plates were incubated at 37° C. for 1-2 hours. Metabolism of XTT was quantified by measuring the absorbance at 450 nm. IC50s were calculated using linear interpolation. For clonogenic survival assays, three hundred cells were plated per 60 mm tissue culture dish. The cells were allowed to attach overnight and then treated with vehicle or drug for 14 days. Colonies were fixed and stained with crystal violet (0.1% crystal violet in 95% ethanol). All conditions were measured in triplicate and each experiment was done in duplicate or triplicate. To determine necrosis, cells were treated with drug for a given time point. Media and cells were collected, centrifugated, and resuspended in 0.4% trypan blue (Invitrogen). Live and dead cells were counted on a hematocytometer.

Tie2 = target: T1, Tie2 (Homo sapiens, UniProt Q02763); experiment: Kinase Profiler; assay type: biochemical; details: STF-31 10 μM
T1 construct: purchased Millipore (Kinase Profiler service)
Procedure: as §1

CK1γ1 = target: T2, CK1γ1 (Homo sapiens, UniProt Q9HCP0); experiment: Kinase Profiler; assay type: biochemical; details: STF-31 10 μM
T2 construct: purchased Millipore (Kinase Profiler service)
Procedure: as §1

IGF-1R = target: T3, IGF-1R (Homo sapiens, UniProt P08069); experiment: Kinase Profiler; assay type: biochemical; details: STF-31 10 μM
T3 construct: purchased Millipore Kinase Profiler
Procedure: as §1

MEK1 = target: T4, MEK1 (Homo sapiens, UniProt Q02750); experiment: Kinase Profiler; assay type: biochemical; details: STF-31 10 μM
T4 construct: purchased Millipore Kinase Profiler
Procedure: as §1

MKK4 = target: T5, MKK4 (Mus musculus, UniProt P47809); experiment: Kinase Profiler; assay type: biochemical; details: STF-31 10 μM
T5 construct: purchased Millipore Kinase Profiler
Procedure: as §1

MSK1 = target: T6, MSK1 (Homo sapiens, UniProt O75582); experiment: Kinase Profiler; assay type: biochemical; details: STF-31 10 μM
T6 construct: purchased Millipore Kinase Profiler
Procedure: as §1

PI3K = experiment: Kinase Profiler; assay type: biochemical; details: STF-31 10 μM
Procedure: as §1

Pim-2 = target: T7, Pim-2 (Homo sapiens, UniProt Q9P1W9); experiment: Kinase Profiler; assay type: biochemical; details: STF-31 10 μM
T7 construct: purchased Millipore Kinase Profiler
Procedure: as §1

SAPK2a = target: T8, SAPK2a (Homo sapiens, UniProt Q16539); experiment: Kinase Profiler; assay type: biochemical; details: STF-31 10 μM
T8 construct: purchased Millipore (Kinase Profiler service)
Procedure: as §1

PDK1 = target: T9, PDK1 (Homo sapiens, UniProt O15530); experiment: Kinase Profiler; assay type: biochemical; details: STF-31 10 μM
T9 construct: purchased Millipore Kinase Profiler
Procedure: as §1

Axl = target: T10, Axl (Homo sapiens, UniProt P30530); experiment: Kinase Profiler; assay type: biochemical; details: STF-31 10 μM
T10 construct: purchased Millipore (Kinase Profiler service)
Procedure: as §1

mTOR = target: T11, mTOR (Homo sapiens, UniProt P42345); experiment: Kinase Profiler; assay type: biochemical; details: STF-31 10 μM
T11 construct: purchased Millipore Kinase Profiler
Procedure: as §1

Flt3 = target: T12, Flt3 (Homo sapiens, UniProt P36888); experiment: Kinase Profiler; assay type: biochemical; details: STF-31 10 μM
T12 construct: purchased Millipore Kinase Profiler
Procedure: as §1

MAPKAP-K2 = target: T13, MAPKAP-K2 (Homo sapiens, UniProt P49137); experiment: Kinase Profiler; assay type: biochemical; details: STF-31 10 μM
T13 construct: purchased Millipore Kinase Profiler
Procedure: as §1

CDK1/cyclinB = target: T14, CDK1/cyclinB (Homo sapiens, UniProt P06493); experiment: Kinase Profiler; assay type: biochemical; details: STF-31 10 μM
T14 construct: purchased Millipore (Kinase Profiler service)
Procedure: as §1

CSK = target: T15, CSK (Homo sapiens, UniProt P41240); experiment: Kinase Profiler; assay type: biochemical; details: STF-31 10 μM
T15 construct: purchased Millipore (Kinase Profiler service)
Procedure: as §1

IR = target: T16, IR (Homo sapiens, UniProt P06213); experiment: Kinase Profiler; assay type: biochemical; details: STF-31 10 μM
T16 construct: purchased Millipore Kinase Profiler
Procedure: as §1

LC3 = experiment: Autophagy markers (vacuoles, LC3 processing); assay type: cell-based; details: RCC4 and RCC4/VHL; 1.25, 2.5 and 5 μM
RCC4 and RCC4/VHL cells = experiment: Apoptosis (nuclear condensation, annexin V / propidium iodide); assay type: cell-based; details: VHL-deficient and wild-type VHL RCCs, DAPI
VHL-deficient cells [2] = experiment: ATP levels (bioluminescence assay); assay type: cell-based
Procedure: as §1

T6 sequence (O75582 whole entry, species assumed): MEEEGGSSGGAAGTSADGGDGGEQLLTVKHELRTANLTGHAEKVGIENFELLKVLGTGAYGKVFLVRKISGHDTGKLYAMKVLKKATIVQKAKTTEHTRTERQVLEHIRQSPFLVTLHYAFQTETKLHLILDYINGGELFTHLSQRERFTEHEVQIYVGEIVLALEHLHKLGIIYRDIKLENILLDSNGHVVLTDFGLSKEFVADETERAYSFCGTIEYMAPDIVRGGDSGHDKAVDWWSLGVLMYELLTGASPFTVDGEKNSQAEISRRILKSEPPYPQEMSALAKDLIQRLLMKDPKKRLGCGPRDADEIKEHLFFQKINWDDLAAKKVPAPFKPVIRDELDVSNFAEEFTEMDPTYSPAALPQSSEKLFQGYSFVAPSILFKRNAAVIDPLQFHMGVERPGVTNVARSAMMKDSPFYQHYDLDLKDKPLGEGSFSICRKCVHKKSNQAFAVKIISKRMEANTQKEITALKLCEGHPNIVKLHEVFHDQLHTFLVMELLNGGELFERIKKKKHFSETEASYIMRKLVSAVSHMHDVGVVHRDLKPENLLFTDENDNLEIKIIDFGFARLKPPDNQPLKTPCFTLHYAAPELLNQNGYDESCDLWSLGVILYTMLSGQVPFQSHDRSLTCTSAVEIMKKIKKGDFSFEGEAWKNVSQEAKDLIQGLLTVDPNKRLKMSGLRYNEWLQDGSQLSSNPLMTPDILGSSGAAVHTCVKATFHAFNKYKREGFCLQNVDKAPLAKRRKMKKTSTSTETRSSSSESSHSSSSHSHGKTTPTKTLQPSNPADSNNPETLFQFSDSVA
T10 sequence (P30530 26-894, species assumed): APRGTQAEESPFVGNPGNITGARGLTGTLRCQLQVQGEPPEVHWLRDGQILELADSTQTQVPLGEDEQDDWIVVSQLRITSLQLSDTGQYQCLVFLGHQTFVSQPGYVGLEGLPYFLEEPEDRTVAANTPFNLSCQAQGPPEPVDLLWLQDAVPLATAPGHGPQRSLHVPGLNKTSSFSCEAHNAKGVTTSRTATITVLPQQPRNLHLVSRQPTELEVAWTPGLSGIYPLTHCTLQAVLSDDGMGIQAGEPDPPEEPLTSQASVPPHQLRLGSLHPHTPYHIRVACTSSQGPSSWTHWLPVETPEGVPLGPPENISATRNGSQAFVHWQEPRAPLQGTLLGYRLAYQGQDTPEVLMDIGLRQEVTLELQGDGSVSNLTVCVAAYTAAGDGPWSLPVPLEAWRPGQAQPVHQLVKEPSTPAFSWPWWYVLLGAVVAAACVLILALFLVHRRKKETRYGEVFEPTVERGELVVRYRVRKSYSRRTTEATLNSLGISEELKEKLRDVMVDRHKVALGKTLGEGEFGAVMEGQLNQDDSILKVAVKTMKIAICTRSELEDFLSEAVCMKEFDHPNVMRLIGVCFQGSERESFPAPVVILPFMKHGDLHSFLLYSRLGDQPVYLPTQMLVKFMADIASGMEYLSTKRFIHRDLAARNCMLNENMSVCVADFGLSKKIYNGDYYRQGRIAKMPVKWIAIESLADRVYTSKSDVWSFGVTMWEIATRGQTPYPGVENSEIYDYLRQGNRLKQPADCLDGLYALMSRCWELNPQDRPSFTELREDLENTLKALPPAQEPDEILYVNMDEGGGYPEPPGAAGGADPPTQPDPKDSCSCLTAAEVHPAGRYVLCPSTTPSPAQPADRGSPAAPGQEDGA
T8 sequence (Q16539 whole entry, species assumed): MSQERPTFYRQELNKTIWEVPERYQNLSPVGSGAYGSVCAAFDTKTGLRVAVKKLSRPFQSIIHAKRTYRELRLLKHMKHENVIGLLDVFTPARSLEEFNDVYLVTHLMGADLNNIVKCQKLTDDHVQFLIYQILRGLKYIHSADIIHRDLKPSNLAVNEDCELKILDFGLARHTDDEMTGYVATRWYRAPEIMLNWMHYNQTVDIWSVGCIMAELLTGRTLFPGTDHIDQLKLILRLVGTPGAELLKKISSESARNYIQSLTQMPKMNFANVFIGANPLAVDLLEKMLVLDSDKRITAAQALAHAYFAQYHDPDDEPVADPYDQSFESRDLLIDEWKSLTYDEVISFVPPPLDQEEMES
T15 sequence (P41240 whole entry, species assumed): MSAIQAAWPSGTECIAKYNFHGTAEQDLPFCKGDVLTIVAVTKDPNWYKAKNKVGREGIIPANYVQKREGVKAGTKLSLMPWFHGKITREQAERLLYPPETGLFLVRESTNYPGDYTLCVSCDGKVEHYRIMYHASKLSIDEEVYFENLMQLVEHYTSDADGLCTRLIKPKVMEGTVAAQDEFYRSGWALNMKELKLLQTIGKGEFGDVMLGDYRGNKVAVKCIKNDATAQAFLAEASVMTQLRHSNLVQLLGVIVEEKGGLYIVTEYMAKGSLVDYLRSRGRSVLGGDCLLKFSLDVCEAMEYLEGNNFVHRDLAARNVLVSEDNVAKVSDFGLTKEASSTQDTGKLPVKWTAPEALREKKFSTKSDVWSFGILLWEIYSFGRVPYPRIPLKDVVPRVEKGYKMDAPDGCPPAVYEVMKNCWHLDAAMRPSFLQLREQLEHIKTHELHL
T7 sequence (Q9P1W9 whole entry, species assumed): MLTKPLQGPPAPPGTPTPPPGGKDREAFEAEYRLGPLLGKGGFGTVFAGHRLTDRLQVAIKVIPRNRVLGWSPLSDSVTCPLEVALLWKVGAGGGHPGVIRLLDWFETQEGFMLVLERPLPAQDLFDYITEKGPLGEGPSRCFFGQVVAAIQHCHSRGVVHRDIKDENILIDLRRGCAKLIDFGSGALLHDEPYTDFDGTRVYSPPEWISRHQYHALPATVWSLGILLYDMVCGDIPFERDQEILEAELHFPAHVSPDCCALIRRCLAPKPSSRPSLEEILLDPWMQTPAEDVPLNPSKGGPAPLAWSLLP
T3 sequence (P08069 31-1367, species assumed): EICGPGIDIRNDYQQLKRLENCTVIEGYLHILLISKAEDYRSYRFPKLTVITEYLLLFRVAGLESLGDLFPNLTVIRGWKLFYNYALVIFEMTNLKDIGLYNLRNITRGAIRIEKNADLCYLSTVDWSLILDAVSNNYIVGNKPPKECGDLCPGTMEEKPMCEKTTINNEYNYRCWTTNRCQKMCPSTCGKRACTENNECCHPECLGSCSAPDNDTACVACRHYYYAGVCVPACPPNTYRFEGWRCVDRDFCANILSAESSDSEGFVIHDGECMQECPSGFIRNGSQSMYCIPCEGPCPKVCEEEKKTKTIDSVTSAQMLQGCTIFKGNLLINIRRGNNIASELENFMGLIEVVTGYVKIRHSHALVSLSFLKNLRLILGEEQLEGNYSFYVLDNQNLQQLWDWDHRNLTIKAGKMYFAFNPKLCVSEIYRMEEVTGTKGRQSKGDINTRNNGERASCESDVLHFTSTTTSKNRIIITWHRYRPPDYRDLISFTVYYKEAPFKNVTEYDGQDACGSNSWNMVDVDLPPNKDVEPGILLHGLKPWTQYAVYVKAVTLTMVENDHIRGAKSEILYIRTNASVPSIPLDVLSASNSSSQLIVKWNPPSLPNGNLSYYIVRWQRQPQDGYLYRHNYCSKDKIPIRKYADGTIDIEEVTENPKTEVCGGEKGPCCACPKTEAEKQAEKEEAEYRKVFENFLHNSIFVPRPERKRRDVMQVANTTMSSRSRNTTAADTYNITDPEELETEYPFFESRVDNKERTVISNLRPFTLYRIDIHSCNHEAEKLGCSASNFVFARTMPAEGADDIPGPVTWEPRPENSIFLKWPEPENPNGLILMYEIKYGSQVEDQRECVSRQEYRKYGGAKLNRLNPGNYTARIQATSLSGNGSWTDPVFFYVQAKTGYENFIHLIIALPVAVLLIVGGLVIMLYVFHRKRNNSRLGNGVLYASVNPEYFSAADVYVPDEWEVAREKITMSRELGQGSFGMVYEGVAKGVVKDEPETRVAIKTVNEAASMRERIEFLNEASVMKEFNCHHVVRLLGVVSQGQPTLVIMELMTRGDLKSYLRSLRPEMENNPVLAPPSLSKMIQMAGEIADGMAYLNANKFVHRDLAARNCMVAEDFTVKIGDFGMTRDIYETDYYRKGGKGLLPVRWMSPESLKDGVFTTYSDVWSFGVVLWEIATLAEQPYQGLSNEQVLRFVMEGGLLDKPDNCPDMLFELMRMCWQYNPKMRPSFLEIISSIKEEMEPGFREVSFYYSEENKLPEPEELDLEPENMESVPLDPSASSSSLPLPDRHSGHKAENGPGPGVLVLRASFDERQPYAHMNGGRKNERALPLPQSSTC
T5 sequence (P47809 2-397 limits assumed): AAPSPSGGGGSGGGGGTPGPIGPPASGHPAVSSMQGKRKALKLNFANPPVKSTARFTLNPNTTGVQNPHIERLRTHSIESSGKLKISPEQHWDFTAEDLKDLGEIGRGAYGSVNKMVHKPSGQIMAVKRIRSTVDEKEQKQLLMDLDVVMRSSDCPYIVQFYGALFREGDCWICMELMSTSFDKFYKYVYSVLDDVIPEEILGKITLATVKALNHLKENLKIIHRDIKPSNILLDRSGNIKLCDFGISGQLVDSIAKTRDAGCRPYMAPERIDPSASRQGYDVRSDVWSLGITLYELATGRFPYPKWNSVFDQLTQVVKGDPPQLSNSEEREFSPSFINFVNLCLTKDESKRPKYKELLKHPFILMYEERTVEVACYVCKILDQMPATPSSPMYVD
T4 sequence (Q02750 whole entry, species assumed): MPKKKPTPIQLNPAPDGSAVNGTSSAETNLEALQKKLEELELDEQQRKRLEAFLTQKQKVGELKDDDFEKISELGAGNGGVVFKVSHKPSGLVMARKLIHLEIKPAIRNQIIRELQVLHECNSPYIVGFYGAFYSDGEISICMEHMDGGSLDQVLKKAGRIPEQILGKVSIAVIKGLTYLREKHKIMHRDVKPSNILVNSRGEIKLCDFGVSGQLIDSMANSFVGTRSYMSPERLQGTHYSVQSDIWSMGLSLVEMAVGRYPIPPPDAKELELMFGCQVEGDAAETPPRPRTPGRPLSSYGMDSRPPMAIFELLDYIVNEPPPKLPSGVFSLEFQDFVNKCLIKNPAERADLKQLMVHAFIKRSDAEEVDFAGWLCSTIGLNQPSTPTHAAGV

SMILES: CC(C)(C)c1ccc(S(=O)(=O)NCc2ccc(C(=O)Nc3cccnc3)cc2)cc1 [STF-31]
- levels of soluble GLUT1 protein (GLUT1; soluble and insoluble fractions): unaffected
- GLUT1 protein levels (GLUT1; time- or concentration-dependent (1.25-10 μM, 3 days)): did not affect
- kinase inhibition across 50 different kinases (50 different kinases): no significant decrease
- 3-series sensitivity (sensitivity to STF-31) (UMRC6/VHL): No
- 3-series sensitivity (sensitivity to STF-31) (RCC4/VHL): No
- 3-series sensitivity (sensitivity to STF-31) (RCC4): Yes
- inhibition of extracellular acidification (VHL-deficient cells [1]): about 60%
- RCC4 cells exhibiting necrotic cell death (RCC4 cells): greater than 80%
- Kinase response to STF-31 (Tie2): 111
- Kinase response to STF-31 (CK1γ1): 85
- Kinase response to STF-31 (IGF-1R): 108
- Kinase response to STF-31 (MEK1): 99
- Kinase response to STF-31 (MKK4): 128
- Kinase response to STF-31 (MSK1): 107
- Kinase response to STF-31 (PI3K): 97
- Kinase response to STF-31 (Pim-2): 112
- Kinase response to STF-31 (SAPK2a): 127
- Kinase response to STF-31 (PDK1): 105
- Kinase response to STF-31 (Axl): 87
- Kinase response to STF-31 (mTOR): 101
- Kinase response to STF-31 (Flt3): 111
- Kinase response to STF-31 (MAPKAP-K2): 87
- Kinase response to STF-31 (CDK1/cyclinB): 96
- Kinase response to STF-31 (CSK): 99
- Kinase response to STF-31 (IR): 121
- morphologic or biochemical features of autophagy (vacuoles, LC3 processing) (LC3): did not induce
- nuclear condensation (RCC4 and RCC4/VHL cells): no nuclear condensation
- inhibition of ATP production versus concentration (VHL-deficient cells [2]): dose-dependent
- decrease in ATP levels (VHL-deficient cells [2]; VHL-deficient cells): 75%
